Read-outs that look alike come from different tables or passages of the source.
What was measured:
[1] = test system: 1321N1 astrocytoma cell line; assay: Antiproliferative activity (MTS), 1321N1; details: Homo sapiens, 1321-N1, 72 h, read-out: IC50 Values 1321N1
human 5-HT6 = molecular target: T1, human 5-HT6 (Homo sapiens, UniProt P50406); assay: [3H]-LSD radioligand binding assay, 5-HT6R; details: HEK293 expressing human 5-HT6R
T1 construct: expressed in transfected cells
Experimental: Next, the ligands’ affinity for the 5-HT6 receptors was evaluated in the [^3H]-LSD radioligand binding assay. Experiments were performed in a stable HEK293 cell line expressing the human 5-HT6R.
The pellets were stored at −80 °C.

[2] = Chromatographic hydrophobicity index on C18 column (lipophilicity); format: physicochemical
[3] = Affinity to phospholipids, IAM column (CHI IAM); format: physicochemical; details: IAM.PC.DD2 column, pH 7.4
[4] = molecular target: human serum albumin (HSA) (Homo sapiens, UniProt P02768); assay: Binding to HSA, Chiralpak HSA column
Excerpt: We began with an assay for lipophilicity, affinity for phospholipids (for 40 compounds), and drug binding to human serum albumin (HSA) (for 20 compounds), using chromatographic protocols developed by Valko [46] and implemented in our laboratory. Compounds with the highest affinity for 5-HT6R and those showing the most promising ADMET parameters, including the possibility of BBB penetration, DDI, and lipophilicity, determined in silico in SwissADME [45], were selected for testing. These methods allowed the determination of chromatographic hydrophobicity indices (CHIs), binding to HSA (%HSA), and phospholipids (CHIIAM) using a single-gradient elution experiment and comparison to reference substances.
The use of columns modified with plasma proteins, such as HSA, also allows for the estimation of binding to HSA, which is the most dominant plasma protein (PP). Binding to PP affects drug pharmacokinetics, such as distribution, half-life, and clearance.
The mobile phase flow rate was 1.5 mL/min, and the column was maintained at 30 °C. • Chiralpak® HSA (50 mm × 4 mm; 5 µm with safety guard column; Daicel Chiral Technologies, West Chester, PA, USA), mobile phase A: 50 mM ammonium acetate, mobile phase B: HPLC-grade isopropanol (VWR International, Leuven, Belgium). For the first 15 min, the linear gradient from 0 to 20% isopropanol was applied and then held at 20% isopropanol for 12 min. In the last 5 min of the sequence, the mobile phase mixture received a pure ammonium acetate solution. The column temperature was held at 30 °C, whereas the flow rate was 0.9 mL/min.
The reference substances for the calibration of HSA, C18, and IAM columns were purchased, respectively: acetanilide, butyrophenone, diclofenac, and octanonophenone (Alfa Aesar, Haverhill, MA, USA); acetophenone, benzimidazole, colchicine, indole, indometacin, paracetamol, and theophylline (Sigma-Aldrich, Steinheim, Germany); nicardipine and nizatidine (Cayman Chemical, Ann Arbor, MI, USA); carbamazepine, heptanophenone, hexanophenone, propiophenone, and valerophenone (Acros Organic, Pittsburg, PA, USA). Before chromatographic experiments, solutes were dissolved in dimethyl sulfoxide (Avantor Performance Materials Poland S.A., Gliwice, Poland) to obtain a 200 µg/mL concentration. The detection was performed in the UV region at the wavelength from 190 nm to 300 nm. The injected volume was 5 μL, and each compound was analyzed in triplicate.

U87MG glioblastoma cells = assay: Antiproliferative activity (MTS), U87MG; details: Homo sapiens, U-87 MG, 72 h, read-out: IC50 Values U87MG

Chain of human serum albumin (HSA) (P02768 25-609): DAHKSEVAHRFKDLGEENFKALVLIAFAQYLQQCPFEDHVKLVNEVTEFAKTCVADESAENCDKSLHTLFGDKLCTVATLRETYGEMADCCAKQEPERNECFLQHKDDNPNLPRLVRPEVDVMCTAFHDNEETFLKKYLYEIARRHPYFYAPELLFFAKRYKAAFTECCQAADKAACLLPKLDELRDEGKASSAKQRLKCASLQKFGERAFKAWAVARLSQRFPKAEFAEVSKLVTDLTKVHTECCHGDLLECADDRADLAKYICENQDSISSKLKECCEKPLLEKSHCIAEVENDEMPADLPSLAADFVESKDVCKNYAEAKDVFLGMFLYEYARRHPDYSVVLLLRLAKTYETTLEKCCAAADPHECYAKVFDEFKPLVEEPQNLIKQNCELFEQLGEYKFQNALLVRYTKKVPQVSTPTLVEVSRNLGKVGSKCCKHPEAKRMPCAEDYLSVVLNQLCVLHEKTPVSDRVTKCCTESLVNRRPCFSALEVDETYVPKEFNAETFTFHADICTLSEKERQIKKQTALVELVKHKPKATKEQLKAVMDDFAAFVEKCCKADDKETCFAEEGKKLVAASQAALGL
T1 sequence (P50406 whole entry): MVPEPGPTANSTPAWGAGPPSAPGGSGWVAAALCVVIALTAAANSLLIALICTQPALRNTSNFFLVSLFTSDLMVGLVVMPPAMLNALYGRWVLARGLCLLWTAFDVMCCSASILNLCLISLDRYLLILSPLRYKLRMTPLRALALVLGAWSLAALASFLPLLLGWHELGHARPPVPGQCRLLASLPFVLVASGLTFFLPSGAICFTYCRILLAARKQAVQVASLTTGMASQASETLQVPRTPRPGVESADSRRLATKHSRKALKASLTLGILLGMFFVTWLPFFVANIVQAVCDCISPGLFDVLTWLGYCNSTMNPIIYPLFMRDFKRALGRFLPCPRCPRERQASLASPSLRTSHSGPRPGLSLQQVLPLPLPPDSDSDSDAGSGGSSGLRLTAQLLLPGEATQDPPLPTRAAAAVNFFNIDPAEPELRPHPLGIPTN

Row | IC50 [1] | Ki (human 5-HT6; read-out: 5-HT6 Ki) | CHI C18 pH 2.6 [2] | CHI C18 pH 7.4 [2] | CHI C18 pH 10.5 [2] | CHI IAM [3] | %HSA ([4]; Chiralpak HSA column) | logKHSA ([4]; Chiralpak HSA column) | melting point | IC50 (U87MG glioblastoma cells) | %HSA [4] | Compound | Ki (human 5-HT6; 5-HT6 Ki)
1 | 1.1 µM |  |  |  |  |  |  |  |  |  |  | COc1cccc2c1C(=O)c1c(O)c3c(c(O)c1C2=O)C[C@@](O)(C(=O)CO)C[C@@H]3O[C@H]1C[C@H](N)[C@H](O)[C@H](C)O1 [Doxorubicin, reference compound] | 
2 | > 25 µM | 0.381 ± 0.088 µM | 90.8 | 89.4 | 92.4 | 40.8 | 96.4% | 1.3 | 191 to 193 °C | > 25 µM |  | O=S(=O)(NC1=Nc2cccc(F)c2CN1)c1cccc2ccccc12 [PR 54, N -(5-fluoro-3,4-dihydroquinazolin-2-yl)naphthalene-1-sulfonamide] | 
3 | > 25 µM | 0.236 ± 0.058 µM |  |  |  |  |  |  | 169 to 174 °C | > 25 µM |  | CC1NC(NS(=O)(=O)c2cccc3ccccc23)=Nc2ccccc21 (stereo not shown) [PR 67, N -(4-methyl-3,4-dihydroquinazolin-2-yl)naphthalene-1-sulfonamide] | 
4 | > 25 µM | 0.484 ± 0.121 µM | 103.2 | 101.2 | 105.6 | 46.3 | 98.3% | 1.6 | 119 to 123 °C | > 25 µM |  | CC1NC(NS(=O)(=O)c2cccc3ccccc23)=Nc2ccc(Br)cc21 (stereo not shown) [PR 75, N -(6-bromo-4-methyl-3,4-dihydroquinazolin-2-yl)naphthalene-1-sulfonamide] | 
5 | > 25 µM | 0.318 ± 0.018 µM | 75.1 | 79.2 | 79.6 | 35.7 | 94.3% | 1.1 | 254 to 256 °C | > 25 µM |  | Nc1nc2ccccc2n1S(=O)(=O)c1cccc2cccnc12 [PR 9, 1-(quinoline-8-sulfonyl)-1H-1,3-benzodiazol-2-amine] | 
6 | > 25 µM | 0.21 ± 0.048 µM | 95.8 | 93.1 | 96.2 | 42.9 | 97.1% | 1.4 | 241 to 244 °C | > 25 µM |  | O=S(=O)(NC1=Nc2ccccc2CN1)c1c(Cl)ccc2ccccc12 [PR 41, 2-chloro-N-(3,4-dihydroquinazolin-2-yl)naphthalene-1-sulfonamide] | 
7 |  |  | 59.4 | 108.6 | 98.7 | 44.2 | 90.9% | 0.95 |  |  |  | CN1CCN2c3ccccc3Cc3ccccc3C2C1 (stereo not shown) [Mianserin, reference compound] | 
8 | > 25 µM | 0.866 ± 0.199 µM | 108.2 | 106.2 | 110.1 | 48.4 | 99.0% | 1.7 | 214 to 219 °C | > 25 µM |  | O=S(=O)(NC1=Nc2c(Cl)cc(Cl)cc2CN1)c1cccc2ccccc12 [PR 51, N -(6,8-dichloro-3,4-dihydroquinazolin-2-yl)naphthalene-1-sulfonamide] | 
9 | > 25 µM | 0.16 ± 0.036 µM |  |  |  |  |  |  |  | > 25 µM |  | O=S(=O)(NC1=Nc2cccc(Cl)c2CN1)c1cccc2ccccc12 [PR 46, N -(5-chloro-3,4-dihydroquinazolin-2-yl)naphthalene-1-sulfonamide] | 
10 |  | 1.96 ± 0.434 µM | 98.3 | 96.4 | 99.9 | 44.9 |  |  | 220 to 222 °C |  |  | O=S(=O)(NC1=Nc2cc(Cl)ccc2CN1)c1ccc2ccccc2c1 [PR 33, N -(7-chloro-3,4-dihydroquinazolin-2-yl)naphthalene-2-sulfonamide] | 
11 |  |  | 46.7 | 101.2 | 79.0 | 39.3 | 76.9% | 0.51 |  |  |  | CN1CCN2c3ncccc3Cc3ccccc3C2C1 (stereo not shown) [Mirtazapine, reference compound] | 
12 |  | 0.906 ± 0.227 µM | 74.1 | 74.5 | 75.5 | 31.4 |  |  | 108 to 114 °C |  |  | COc1cccc(S(=O)(=O)NC2=Nc3ccccc3CN2)c1 [PR 24, N -(3,4-dihydroquinazolin-2-yl)-3-methoxybenzene-1-sulfonamide] | 
13 |  | 0.451 ± 0.102 µM | 106.2 | 103.9 | 108.6 | 49.0 |  |  | 233 to 240 °C |  |  | O=S(=O)(NC1=Nc2ccc(Cl)c(Cl)c2CN1)c1cccc2ccccc12 [PR 50, N -(5,6-dichloro-3,4-dihydroquinazolin-2-yl)naphthalene-1-sulfonamide] | 
14 |  | 0.985 ± 0.245 µM | 100.2 | 99.7 | 101.0 | 45.8 |  |  | 214 to 219 °C |  |  | CC1NC(NS(=O)(=O)c2cccc3ccccc23)=Nc2cc(Cl)ccc21 (stereo not shown) [PR 70, N -(7-chloro-4-methyl-3,4-dihydroquinazolin-2-yl)naphthalene-1-sulfonamide] | 
15 |  | 2.17 ± 0.538 µM | 99.7 | 97.4 | 100.6 | 46.0 |  |  | 202 to 204 °C |  |  | O=S(=O)(NC1=Nc2cccc(Cl)c2CN1)c1ccc2ccccc2c1 [PR 31, N -(5-chloro-3,4-dihydroquinazolin-2-yl)naphthalene-2-sulfonamide] | 
16 | > 25 µM | 0.258 ± 0.046 µM |  |  |  |  |  |  | 185 to 191 °C | > 25 µM |  | O=S(=O)(NC1=Nc2ccccc2CN1)c1cccc2c(Cl)cccc12 [PR 43, 5-chloro-N-(3,4-dihydroquinazolin-2-yl)naphthalene-1-sulfonamide] | 
17 |  | 1.8 ± 0.451 µM | 76.4 | 76.3 | 86.6 | 33.5 |  |  | 217 to 222 °C |  |  | O=S(=O)(NC1=Nc2ccccc2CN1)c1ccccc1Cl [PR 18, 2-chloro-N-(3,4-dihydroquinazolin-2-yl)benzene-1-sulfonamide] | 
18 |  | 4.64 ± 1.16 µM | 82.8 | 81.0 | 83.0 | 35.3 |  |  | 157 to 165 °C |  |  | COc1ccc(Cl)cc1S(=O)(=O)NC1=Nc2ccccc2CN1 [PR 25, 5-chloro-N-(3,4-dihydroquinazolin-2-yl)-2-methoxybenzene-1-sulfonamide] | 
19 |  |  | 65.9 | 112.0 | 116.3 | 47.0 |  | 0.87 |  |  | 88.9% | CN(C)CCC=C1c2ccccc2CCc2ccccc21 [Amitriptyline, reference compound] | 

Row | Compound | IC50 [1] | Ki (human 5-HT6; read-out: 5-HT6 Ki) | CHI C18 pH 2.6 [2] | CHI C18 pH 7.4 [2] | CHI C18 pH 10.5 [2] | CHI IAM [3] | %HSA ([4]; Chiralpak HSA column) | logKHSA ([4]; Chiralpak HSA column) | melting point | IC50 (U87MG glioblastoma cells) | %HSA [4] | Ki (human 5-HT6; 5-HT6 Ki)
20 | Nc1nc2ccccc2n1S(=O)(=O)c1csc2ccccc12 [PR 8, 1-(1-benzothiophene-3-sulfonyl)-1H-1,3-benzodiazol-2-amine] |  |  | 89.8 | 90.3 | 91.0 | 40.3 |  |  | 192 to 195 °C |  |  | 0.133 ± 0.033 µM
21 | COc1ccc(C(CN(C)C)C2(O)CCCCC2)cc1 (stereo not shown) [Venlafaxine, reference compound] |  |  | 53.5 | 82.2 | 92.9 | 29.9 |  | -0.55 |  |  |  | 
